Results on one compound are retold here after patent US20220202739A1, “ENDOCANNABINOID MIMETIC AND ANTI-INFLAMMATORY COMPOUND CONTAINING COMPOSITIONS, METHODS OF PREPARATION AND USES THEREOF” (priority 2019, published 2022).

Holding throughout (assay type): cell-based
For assay [1], the system named is PTGS1. In words: Gene expression custom microarray, human skin fibroblasts (Example 1): PTGS1. Particulars: human skin fibroblasts, 10 uM, 24 hr. The source says:
(§1) Cell cultures: A human skin fibroblast cell culture (or cultures) was obtained through the Coriell Cell Repository from the National Institute on Aging Cell Repository (Camden, N.J.), or Promocell GmbH (Heidelberg, Germany). The initial culture was selected from the following cell lines: AG13066, AG11557, AG11796 or GM03651E. The cell lines were derived from donors as follows:
(§2) Experimental phase: When the appropriate quantity of cells had been grown, they were detached as described above, but at the final step were seeded into each well of one or more 6 well dishes. Each well received 2 ml of the cell suspension so they were seeded equally. The dishes were returned to the incubator until 85-95% confluency was reached.
(§3) It is at this stage that all wells were rinsed in PBS after aspirating the growth media. The compound(s) to be tested were previously mixed into a suitable solvent (e.g., DMSO or ethanol) that can be diluted to the desired concentration of test compound (10 μl) in the culture wells without exceeding maximum solvent concentrations and adversely effecting cell viability, and mixed with basal media. NOTE: Standard maximum levels of solvent are 0.1% for DMSO and 0.5% for ETOH. The concentration of each test compound is found in Tables 1 & 2.
(§4) Every 2 wells on the 6 well plate served as a biological replicate for the purposes of RNA isolation and genetic expression evaluations making each 6 well dish an n=3 for the test compound(s) contained in the media. Negative control plates (no test compound(s) and only basal media) were also generated. The plates were returned to the incubator for 24 hrs.
(§5) At the end of the 24 hr time period, the plates were removed from the incubator, the test media aspirated, and the cells rinsed with PBS. RNA isolation is performed using the BioRad Aurum Total RNA Mini Kit (Hercules, Calif.) per manufacturer's protocol; which is described, in brief, below: • Add 350 μl of lysis buffer to each well. Pipet multiple times to ensure thorough lysis. Add lysed cells to the collection tube. • Add 350 μl of 70% ETOH to the collection tube and mix thoroughly. • Pipet the generated lysate onto the spin column placed in a new 2 ml tube. Centrifuge for 30 sec between 8,000 and 10,000 g. • Place the spin column containing the now bound RNA, in a new 2 ml tube. Add 700 μl of low stringency wash solution to the spin column. Centrifuge for 30 sec between 8,000 and 10,000 g. Discard the flow through and replace spin column. • Add 80 μl of DNase I dilution to the spin column and incubate at room temperature for 15 minutes. • Add 700 μl of high stringency wash solution to the column and centrifuge for 30 sec between 8,000 and 10,000 g. Discard flow through. • Add 700 μl of low stringency wash solution to the column and centrifuge for 60 sec between 8,000 and 10,000 g. Discard flow through. • Centrifuge for 2 minutes to remove residual wash solution. • Transfer spin column to new 1.5 ml collection tube and add 80 μl of elution solution to the column. Allow 1 minute for saturation of the membrane and then centrifuge for 2 minutes to complete the RNA elution. • Quantify the quantity of RNA and store at −20 C° until use (no more than 1 month)
(§6) The genes tested were: • Cannabinoid receptor 1 (CB1(CNR1)) • Cannabinoid receptor 2 (CB2 (CNR2)) • Fatty acid amide hydrolase (FAAH) • Monoacylglycerol lipase (MGLL, i.e., MAGL) • Peroxisome proliferator-activated receptor gamma (PPARG) • Nuclear factor kappa-light-chain-enhancer of activated B cells (NFκβ) • Interleukin 1 Alpha (IL1alpha) • Cyclooxygenase 1 (PTGS1, i.e., COX1) • Transient receptor potential cation channel subfamily A member 1 (TRPA1) • Transient receptor potential cation channel subfamily V member 1 (TRPV1) • Transient receptor potential cation channel subfamily M member 8 (TRPM8) • Hemoglobin Subunit Beta (HBB) REFERENCE GENE • Ribosomal Protein L13a (RPL13A) REFERENCE GENE […]

Assay [2] has as its system IL1A. In words: Gene expression custom microarray, human skin fibroblasts (Example 1): IL1A. The note with it: 10 uM, 24 hr.
From the text: as §1, §2, §3, §4, §5, §6

Assay [3] has as its system FAAH. Nature of the assay: Gene expression custom microarray, human skin fibroblasts (Example 1): FAAH. The note with it: human skin fibroblasts, 10 uM, 24 hr.
From the text: as §1, §2, §3, §4, §5, §6

Assay [4] has as its system NFKB1. Nature of the assay: Gene expression custom microarray, human skin fibroblasts (Example 1): NFKB1. Particulars: human skin fibroblasts, 10 uM, 24 hr.
From the text: as §1, §2
(§7) It is at this stage that all wells were rinsed in PBS after aspirating the growth media. The compound(s) to be tested were previously mixed into a suitable solvent (e.g., DMSO or ethanol) that can be diluted to the desired concentration of test compound (10 μl) in the culture wells without exceeding maximum solvent concentrations and adversely effecting cell viability, and mixed with basal media. NOTE: Standard maximum levels of solvent are 0.1% for DMSO and 0.5% for ETOH.
as §4, §5
(§8) The genes tested were: • Cannabinoid receptor 1 (CB1(CNR1)) • Cannabinoid receptor 2 (CB2 (CNR2)) • Fatty acid amide hydrolase (FAAH) • Monoacylglycerol lipase (MGLL, i.e., MAGL) • Peroxisome proliferator-activated receptor gamma (PPARG) • Nuclear factor kappa-light-chain-enhancer of activated B cells (NFκβ) • Interleukin 1 Alpha (IL1alpha) • Cyclooxygenase 1 (PTGS1, i.e., COX1) • Transient receptor potential cation channel subfamily A member 1 (TRPA1) • Transient receptor potential cation channel subfamily V member 1 (TRPV1) • Transient receptor potential cation channel subfamily M member 8 (TRPM8) • Hemoglobin Subunit Beta (HBB) REFERENCE GENE • Ribosomal Protein L13a (RPL13A) REFERENCE GENE

For assay [5], the system named is TRPV1. Nature of the assay: Gene expression custom microarray, human skin fibroblasts (Example 1): TRPV1. The note with it: 10 uM, 24 hr.
From the text: as §1, §2, §3, §4
At the end of the 24 hr time period, the plates were removed from the incubator, the test media aspirated, and the cells rinsed with PBS. RNA isolation is performed using the BioRad Aurum Total RNA Mini Kit (Hercules, Calif.) per manufacturer's protocol; which is described, in brief, below: • Add 350 μl of lysis buffer to each well. Pipet multiple times to ensure thorough lysis. Add lysed cells to the collection tube. • Add 350 μl of 70% ETOH to the collection tube and mix thoroughly. • Pipet the generated lysate onto the spin column placed in a new 2 ml tube. Centrifuge for 30 sec between 8,000 and 10,000 g. • Place the spin column containing the now bound RNA, in a new 2 ml tube. Add 700 μl of low stringency wash solution to the spin column. Centrifuge for 30 sec between 8,000 and 10,000 g. […] Allow 1 minute for saturation of the membrane and then centrifuge for 2 minutes to complete the RNA elution. • Quantify the quantity of RNA and store at −20 C° until use (no more than 1 month) […]

Assay [6] relates to PPARG. Nature of the assay: Gene expression custom microarray, human skin fibroblasts (Example 1): PPARG. The note with it: human skin fibroblasts, 10 uM, 24 hr.
From the text: as §1, §2, §7, §4, §5, §8

In assay [7] the test system is MAGL. In words: Gene expression custom microarray, human skin fibroblasts (Example 1): MAGL. The note with it: human skin fibroblasts, 10 uM, 24 hr.
From the text: as §1, §2, §3, §4, §5, §6

Assay [8] has as its system TRPA1. Nature of the assay: Gene expression custom microarray, human skin fibroblasts (Example 1): TRPA1. The note with it: human skin fibroblasts, 10 uM, 24 hr.
From the text: as §1, §2, §3, §4, §5, §6

Assay [9] concerns TRPM8. Nature of the assay: Gene expression custom microarray, human skin fibroblasts (Example 1): TRPM8. The note with it: 10 uM, 24 hr.
From the text: as §1, §2, §3, §4, §5, §6

Assay [10] relates to CNR1. In words: Gene expression custom microarray, human skin fibroblasts (Example 1): CNR1. Particulars: human skin fibroblasts, 10 uM, 24 hr.
From the text: as §1, §2, §3, §4, §5, §6

The subject of assay [11] is CNR2. Nature of the assay: Gene expression custom microarray, human skin fibroblasts (Example 1): CNR2. The note with it: human skin fibroblasts, 10 uM, 24 hr.
From the text: as §1, §2, §3, §4, §5, §6

Take `C=C1CC/C=C(\C)CC[C@@H]2[C@@H]1CC2(C)C` [B-Caryphyllene, B-Caryophyllene]: the “PTGS1↓ gene expression, fold increase or decrease vs untreated cells” value in assay [1] was −1.5 fold. Further, the “IL1A↓ gene expression, fold increase or decrease vs untreated cells” value in [2] is given as 0 fold. Further, the “FAAH↓ gene expression, fold increase or decrease vs untreated cells” value in assay [3] is listed as −1.6 fold. Also, the “NFKB1↓ gene expression, fold increase or decrease vs untreated cells” value in assay [4] is −1.3 fold. In assay [5], the “TRPV1↑ gene expression, fold increase or decrease vs untreated cells” value was 2 fold. Further, the “PPARG↑ gene expression, fold increase or decrease vs untreated cells” value in assay [6] is on record as −1.6 fold. Moreover, the “MAGL↓ gene expression, fold increase or decrease vs untreated cells” value in [7] was found to be 1 fold. The “TRPA1↑ gene expression, fold increase or decrease vs untreated cells” value in assay [8] was 0 fold. Further, the “TRPM8↑ gene expression, fold increase or decrease vs untreated cells” value in assay [9] turned out to be 5.5 fold. For the same compound, in [10], the “CNR1↑ gene expression, fold increase or decrease vs untreated cells” value turned out to be 0 fold. Further, the “CNR2↑ gene expression, fold increase or decrease vs untreated cells” value in assay [11] was determined as 0 fold.
